Results: article doi:10.1101/2021.10.07.463234v2 (biorxiv, 2021)
Counter-ions that a name gives are not always drawn.

Target: SARS-CoV-2 Mac1 (Severe acute respiratory syndrome coronavirus 2, UniProt P0DTD1)
Test: biochemical
Settings: for inhibition at 100 µM: read-out: %inhibition; for %inhibition: 100 µM, inhibitor

## CC1(C)OC[C@@H](COC(=O)CCc2ccc(OC[C@@H](O)CNCCNC(=O)N3CCOCC3)cc2)O1 [Landiolol hydrochloride]
  inhibition at 100 µM: 18%

## O=C(O)c1cc(-c2ccccc2)nc2ccccc12 [Cinchophen]
  inhibition at 100 µM: 17.7%

## C[C@H](O)C(=O)Nc1c(I)c(C(=O)NC(CO)CO)c(I)c(C(=O)NC(CO)CO)c1I [Iopamidol]
  inhibition at 100 µM: 0%

## Cc1cncc(CN2CCC(=C3c4ccc(Cl)cc4CCc4cccnc43)CC2)c1 [Rupatadine Fumarate]
  inhibition at 100 µM: 24.3%

## C#C[C@]1(O)C=C[C@H]2[C@@H]3CCC4=CC(=O)CC[C@@H]4[C@H]3CC[C@@]21CC [Gestodene]
  inhibition at 100 µM: 0%

## CCC[C@@H]1CC(=O)N([C@@H](CC)C(N)=O)C1 [Brivaracetam]
  inhibition at 100 µM: 24.6%

## CC(=O)Oc1c(C)c(C)c2c(c1C)CCC(C)(CCC[C@H](C)CCC[C@H](C)CCCC(C)C)O2 (some centres unmarked) [Vitamin E Acetate]
  inhibition at 100 µM: 0%

## CCCNS(=O)(=O)Nc1ncnc(OCCOc2ncc(Br)cn2)c1-c1ccc(Br)cc1 [Macitentan]
  inhibition at 100 µM: 10%

## COc1cc2nc(N3CCN(C(=O)C4COc5ccccc5O4)CC3)nc(N)c2cc1OC (centres unmarked) [Doxazosin Mesylate]
  inhibition at 100 µM: 14.6%

## O=C(O)CCNC(=O)c1ccccc1 [Betamipron]
  inhibition at 100 µM: 7.69%

## CCCc1cc(C(N)=S)ccn1 [Protionamide]
  inhibition at 100 µM: 50.9%

## COCCc1ccc(OCC(O)CNC(C)C)cc1 (centres unmarked) [Metoprolol succinate]
  %inhibition: 1.216%

## CC(C)NCC(O)c1ccc(NS(C)(=O)=O)cc1 (centres unmarked) [Sotalol HCl]
  inhibition at 100 µM: 0%

## CC(=O)OCC(=O)[C@@]1(O)[C@H](C)C[C@H]2[C@@H]3CCC4=CC(=O)C=C[C@]4(C)[C@@]3(F)[C@@H](O)C[C@@]21C [Dexamethasone Acetate]
  inhibition at 100 µM: 0%

## O=C(O)c1ccccc1 [Sodium benzoate]
  %inhibition: 0%

## N=C(N)NC(=O)c1nc(Cl)c(N)nc1N [Amiloride HCl dihydrate]
  %inhibition: 4.635%

## C[C@]12CCC(=O)C=C1C=C[C@@H]1[C@@H]2CC[C@@]2(C)[C@H]1CC[C@@]2(O)CCC(=O)O [Potassium Canrenoate]
  inhibition at 100 µM: 0%

## CO/N=C(\C(=O)N[C@@H]1C(=O)N2C(C(=O)O)=C(COC(C)=O)CS[C@H]12)c1csc(N)n1 [Cefotaxime sodium]
  inhibition at 100 µM: 0.981%

## CS(=O)(=O)c1ccc(C(=O)Nc2ccc(Cl)c(-c3ccccn3)c2)c(Cl)c1 [Vismodegib (GDC-0449)]
  inhibition at 100 µM: 0%

## O=C1NCC2(CCN(CCc3ccccc3)CC2)O1 [Fenspiride HCl]
  inhibition at 100 µM: 26.5%

## CN(C)CCN1C(=O)c2cccc3cc(N)cc(c23)C1=O [Amonafide]
  inhibition at 100 µM: 16.3%

## NC(=O)c1ncn([C@@H]2O[C@H](CO)[C@@H](O)[C@H]2O)c1N [AICAR (Acadesine)]
  inhibition at 100 µM: 14.6%

## COc1ccc(CCNCC(O)COc2cccc(C)c2)cc1OC (centres unmarked) [Bevantolol hydrochloride]
  inhibition at 100 µM: 17.4%

## Nc1ccc(S(=O)(=O)Nc2nccs2)cc1 [Sulfathiazole]
  inhibition at 100 µM: 5.37%

## NC(N)=Nc1nc(CSCC/C(N)=N/S(N)(=O)=O)cs1 [Famotidine]
  inhibition at 100 µM: 1.86%

## CC(=O)OC/C=C(C)/C=C/C=C(C)/C=C/C1=C(C)CCCC1(C)C [Vitamin A Acetate]
  inhibition at 100 µM: 4.44%

## CCCCNC(=O)NS(=O)(=O)c1ccc(C)cc1 [Tolbutamide]
  inhibition at 100 µM: 0%

## CNC[C@H](O)c1cccc(O)c1 [Phenylephrine HCl]
  inhibition at 100 µM: 14.5%

## CC[C@H](C)C(=O)O[C@H]1C[C@H](O)C=C2C=C[C@H](C)[C@H](CC[C@@H](O)C[C@@H](O)CC(=O)O)[C@H]21 [Pravastatin sodium]
  inhibition at 100 µM: 28.2%

## COc1ccc2cc([C@H](C)C(=O)O)ccc2c1 [Naproxen Sodium]
  inhibition at 100 µM: 0%

## O=C1C2CC3CC1CC(O)(C3)C2 [Idramantone]
  inhibition at 100 µM: 3.83%

## Cc1onc(-c2ccccc2)c1C(=O)N[C@@H]1C(=O)N2[C@@H]1SC(C)(C)[C@@H]2C(=O)O [Oxacillin sodium monohydrate]
  inhibition at 100 µM: 0%

## CNC(=O)c1cc(Oc2ccc(NC(=O)Nc3ccc(Cl)c(C(F)(F)F)c3)c(F)c2)ccn1 [Regorafenib Monohydrate]
  %inhibition: 0%

## COc1ccc(-c2ccc3cc(C(=O)O)ccc3c2)cc1[C@]12C[C@H]3C[C@H](C[C@H](C3)C1)C2 [Adapalene]
  inhibition at 100 µM: 27.7%

## O=C1NS(=O)(=O)c2ccccc21 [Saccharin]
  inhibition at 100 µM: 0%

## CCCCc1nc(Cl)c(CO)n1Cc1ccc(-c2ccccc2-c2nnn[nH]2)cc1 [Losartan Potassium (DuP 753)]
  %inhibition: 0%

## CC1(C)[C@H](C(=O)O)N2C(=O)C[C@H]2S1(=O)=O [Sulbactam]
  %inhibition: 20.75%

## CC(C)N(CCNC(=O)CN1CCCC1=O)C(C)C [Pramiracetam]
  inhibition at 100 µM: 1.25%

## CN(Cc1cnc2nc(N)nc(N)c2n1)c1ccc(C(=O)N[C@@H](CCC(=O)O)C(=O)O)cc1 [Methotrexate]
  %inhibition: 59.68%

## CCN(CC)CCNC(=O)c1c(C)[nH]c(/C=C2\C(=O)Nc3ccc(F)cc32)c1C [Sunitinib]
  %inhibition: 31.86%

## CC1(C)O[C@@H]2C[C@H]3[C@@H]4CCC5=CC(=O)CC[C@]5(C)[C@@]4(F)[C@@H](O)C[C@]3(C)[C@]2(C(=O)CCl)O1 [Halcinonide]
  inhibition at 100 µM: 25.9%

## C=CC(=O)Nc1cc(Nc2nccc(-c3cn(C)c4ccccc34)n2)c(OC)cc1N(C)CCN(C)C [Osimertinib (AZD9291)]
  inhibition at 100 µM: 0%

## CS(=O)(=O)Nc1cc2occ(NC=O)c(=O)c2cc1Oc1ccccc1 [Iguratimod]
  inhibition at 100 µM: 4.14%

## O=C(O)C1=C(CSc2nnnn2CS(=O)(=O)O)CS[C@@H]2[C@H](NC(=O)[C@H](O)c3ccccc3)C(=O)N12 [Cefonicid sodium]
  inhibition at 100 µM: 0%

## Cc1[nH]cnc1CN1CCc2c(c3ccccc3n2C)C1=O [Alosetron Hydrochloride]
  inhibition at 100 µM: 16.8%

## CC[C@H]1OC(=O)[C@H](C)[C@@H](O[C@H]2C[C@@](C)(OC)[C@@H](O)[C@H](C)O2)[C@H](C)[C@@H](O[C@@H]2O[C@H](C)C[C@H](N(C)C)[C@H]2O)[C@](C)(O)C[C@@H](C)CN(C)[C@H](C)[C@@H](O)[C@]1(C)O [Azithromycin]
  %inhibition: 5.483%

## CN(C)CCC(c1ccc(Cl)cc1)c1ccccn1 (centres unmarked) [Chlorpheniramine Maleate]
  inhibition at 100 µM: 6.37%

## C[C@]12C=CC(=O)N[C@@H]1CC[C@@H]1[C@@H]2CC[C@]2(C)[C@@H](C(=O)Nc3cc(C(F)(F)F)ccc3C(F)(F)F)CC[C@@H]12 [Dutasteride]
  inhibition at 100 µM: 12%

## C[C@@H](O)[C@H]1C(=O)N2C(C(=O)O)=C(S[C@@H]3CN[C@H](C(=O)N(C)C)C3)[C@H](C)[C@H]12 [Meropenem Trihydrate]
  %inhibition: 21.42%

## Cn1nnc(-c2ccc(-c3ccc(N4C[C@H](CO)OC4=O)cc3F)cn2)n1 [Tedizolid]
  inhibition at 100 µM: 0%

## Cc1ccccc1N1CCN(CCc2nnc3n2CCCC3)CC1 [Dapiprazole Hydrochloride]
  inhibition at 100 µM: 12.7%

## C/C(O)=C(\C#N)C(=O)Nc1ccc(C(F)(F)F)cc1 [Teriflunomide]
  inhibition at 100 µM: 12.5%

## CCCC(CCC)C(=O)O[C@H]1C[C@H]2CC[C@@H](C1)[N+]2(C)C [Anisotropine Methylbromide]
  inhibition at 100 µM: 5.8%

## CC(=O)OCC(=O)[C@@]12OC(C)(C)O[C@@H]1C[C@H]1[C@@H]3C[C@H](F)C4=CC(=O)C=C[C@]4(C)[C@@]3(F)[C@@H](O)C[C@@]12C [Fluocinonide]
  inhibition at 100 µM: 24.1%

## COC(=O)C1=C(C#N)NC(C)=C(C(=O)OC(C)C)C1c1cccc([N+](=O)[O-])c1 (centres unmarked) [Nilvadipine]
  inhibition at 100 µM: 0%

## Nc1nc(N)nc(-c2cc(Cl)ccc2Cl)n1 [Irsogladine]
  inhibition at 100 µM: 22.5%

## CCCN1CCCC[C@H]1C(=O)Nc1c(C)cccc1C [Ropivacaine]
  inhibition at 100 µM: 0%

## NC(=O)C(c1ccccc1)(c1ccccc1)[C@@H]1CCN(CCc2ccc3c(c2)CCO3)C1 [Darifenacin HBr]
  inhibition at 100 µM: 0%

## c1ccc(-c2ccc(C(c3ccccc3)n3ccnc3)cc2)cc1 (centres unmarked) [Bifonazole]
  inhibition at 100 µM: 37%

## CN(C)c1nc(N(C)C)nc(N(C)C)n1 [Altretamine]
  inhibition at 100 µM: 19.5%

## CS(=O)(=O)OCCCCOS(C)(=O)=O [Busulfan]
  inhibition at 100 µM: 0%

## N#C[C@@H]1C[C@@H]2C[C@@H]2N1C(=O)[C@@H](N)C12CC3CC(CC(O)(C3)C1)C2 [Saxagliptin hydrate]
  inhibition at 100 µM: 8.79%

## Cc1cc(/C=C/C#N)cc(C)c1Nc1ccnc(Nc2ccc(C#N)cc2)n1 [Rilpivirine]
  inhibition at 100 µM: 7.83%

## CCC(=O)O[C@@H]1CC(=O)O[C@H](C)C/C=C/C=C/[C@H](O)[C@H](C)C[C@H](CC=O)[C@H](O[C@@H]2O[C@H](C)[C@@H](O[C@H]3C[C@@](C)(O)[C@@H](OC(=O)CC)[C@H](C)O3)[C@H](N(C)C)[C@H]2O)[C@H]1OC [Midecamycin]
  inhibition at 100 µM: 5.18%

## COc1cc2nccc(Oc3ccc(NC(=O)C4(C(=O)Nc5ccc(F)cc5)CC4)cc3)c2cc1OC [Cabozantinib (XL184, BMS-907351)]
  %inhibition: 25.14%

## CC(C)(C)NCC(O)c1ccc(O)c(CO)c1 (centres unmarked) [Salbutamol Sulfate]
  %inhibition: 6.444%

## CC(=O)Oc1ccc(C(=C2CCCCC2)c2ccc(OC(C)=O)cc2)cc1 [Cyclofenil]
  inhibition at 100 µM: 11.6%

## O[C@H]1[C@H](O)[C@@H](O)[C@H](O)[C@@H](O)[C@H]1O [i-Inositol]
  inhibition at 100 µM: 0%

## N=C(N)NCCN1CCCCCCC1 [Guanethidine Sulfate]
  %inhibition: 0%

## N=C1CCCN1Cc1[nH]c(=O)[nH]c(=O)c1Cl [Tipiracil hydrochloride]
  inhibition at 100 µM: 0%

## CN1[C@@H]2C[C@@H](OC(=O)[C@H](CO)c3ccccc3)C[C@H]1[C@@H]1O[C@@H]12 [Scopolamine HBr]
  inhibition at 100 µM: 0%

## CCc1nn(CCCN2CCN(c3cccc(Cl)c3)CC2)c(=O)n1CCOc1ccccc1 [Nefazodone hydrochloride]
  inhibition at 100 µM: 14%

## O=C1CN(/N=C/c2ccc([N+](=O)[O-])o2)C(=O)N1 [Nitrofurantoin]
  inhibition at 100 µM: 4.04%

## CN1CCC(=C2c3ccccc3CCn3c(C=O)cnc32)CC1 [Alcaftadine]
  inhibition at 100 µM: 0%
